Reference: patent US5593988A, “Therapeutic agent for osteoporosis and diazepine compound” (Yoshitomi Pharmaceutical Industries, Ltd., priority 1991, dated 1997)

These molecules were tested on bone resorption (parietal bone) (assay: Bone resorption-inhibitory activity (45Ca release from newborn mouse parietal bone, hPTH (1-34) stimulated, method of Raisz)). Details: 5 μM, Table 20, average of four pairs, read-out: bone resorption-inhibitory action, % against control.
Assay type: cell-based, ICR mouse
Source text: The method for determining the bone resorption-inhibitory activity of the Compound (I) and the results are shown in the following.
Bone resorption-inhibitory activity
The determination of the bone resorption-inhibitory activity basically followed the method of Raisz [J. Clin. Invest., vol. 44, pp. 103-116 (1965)].
A 1-2 days old new born ICR mouse was intraperitoneally administered with 1.5μ Ci ^45 Ca (CaCl2 solution of isotope of calcium) and parietal bone was asceptically removed the next day. The parietal bone was split into two along the central sature line and one of them was used as a control and the other was used for the experiment. The bone was preincubated in 0.5 ml of a BGJb medium (Fitton-Jackson modification, GIBCO Laboratories, U.S.A.) added with the test compound to a concentration of 5 μM or 20 μM and bovine serum albumin (1 mg/ml) at 37° C. for 2 days, and further incubated in the aforementioned medium containing 50 nM hPTH (1-34) for 3 days. After the incubation, the radioactivity of ^45 Ca in the medium and in the bone was measured and the ratio (%) of ^45 Ca released from the bone into the medium was calculated. [formula]
Using the bone obtained from the same mouse and treated in the same manner without the test compound as a control, the ratio (%) against the control was calculated according to the following equation. [formula]
The average of these values obtained from four pairs from each group was calculated.

SMILES	inhibition at 5 µM [%]
CCc1cc2c(s1)-n1c(C)nnc1C(NC(=O)Nc1ccc(Cl)cc1)N=C2c1ccc(Cl)cc1 (stereo not shown) [compound 75]	47.7
CCc1cc2c(s1)-n1c(C)nnc1C(NC(=O)Nc1cccc(OC)c1)N=C2c1ccc(Cl)cc1 (stereo not shown) [compound 76]	29.5
CCCCCCc1cc2c(s1)-n1c(C)nnc1C(NC(=O)Nc1cccc(C)c1)N=C2c1ccc(Cl)cc1 (stereo not shown) [compound 78]	45.4
Cc1cccc(NC(=O)NC2N=C(c3ccccc3Cl)c3c(sc(C)c3C)-n3c(C)nnc32)c1 (stereo not shown) [compound 83]	35
CCc1cc2c(s1)-n1c(C3CCCCC3)nnc1C(NC(=O)Nc1cccc(C)c1)N=C2c1ccccc1Cl (stereo not shown) [compound 84]	65.3
CCc1cc2c(s1)-n1c(C)nnc1C(NC(=O)Nc1cccc(C)c1)N=C2c1ccc(C)cc1 (stereo not shown) [compound 86]	30.3
CCc1cc2c(s1)-n1c(C)nnc1C(NC(=O)Nc1ccccc1)N=C2c1ccc(Cl)cc1 (stereo not shown) [compound 87]	31.6
CCc1cc2c(s1)-n1c(C)nnc1C(NC(=O)Nc1cccc(C)c1)N=C2c1ccccc1 (stereo not shown) [compound 88]	33.8
CCc1cc2c(s1)-n1c(C)nnc1C(NC(=O)Nc1ccccc1OC)N=C2c1ccc(Cl)cc1 (stereo not shown) [compound 90]	34.2
CCc1cc2c(s1)-n1c(C)nnc1C(NC(=S)Nc1ccccc1)N=C2c1ccccc1Cl (stereo not shown) [compound 93]	63.5
CCCCc1cc2c(s1)-n1c(C)nnc1C(NC(=O)Nc1cccc(C)c1)N=C2c1ccc(Cl)cc1 (stereo not shown) [compound 98]	35
CCc1cc2c(s1)-n1c(C3CCCCC3)nnc1C(NC(=O)Nc1ccccc1OC)N=C2c1ccccc1Cl (stereo not shown) [compound 100]	55.5

Same assay, conditions: 20 μM, Table 20, average of four pairs, read-out: bone resorption-inhibitory action, % against control

SMILES	inhibition at 20 µM [%]
Cc1nnc2n1-c1sc(CCCc3ccc(CC(C)C)cc3)cc1C(c1ccccc1Cl)=NC2 [compound 11]	23.4
CCCCCCCCc1ccc(CCc2cc3c(s2)-n2c(C)nnc2CN=C3c2ccccc2Cl)cc1 [compound 29]	16.4
Cc1nnc2n1-c1sc(CCc3ccc(CC(C)C)cc3)cc1C(c1ccc(OCCN(C)C)cc1)=NC2 [compound 32]	16
CC(C)Cc1ccc(CCc2cc3c(s2)-n2c(nnc2C(C)(C)C)C(C)N=C3c2ccccc2Cl)cc1 (stereo not shown) [compound 34]	15.5
Cc1nnc2n1-c1sc(CCC(=O)N3CCN(C(c4ccccc4)c4ccccc4)CC3)cc1C(c1ccccc1Cl)=NC2 [compound 36]	21.9
CCCC1N=C(c2ccc(Cl)cc2)c2cc(CCc3ccc(CC(C)C)cc3)sc2-n2c(C)nnc21 (stereo not shown) [compound 42]	16.9
Cc1nnc2n1-c1sc(CCc3ccc(CC(C)C)cc3)cc1C(c1ccccc1Cl)=NC2CC(C)C (stereo not shown) [compound 43]	21.2
Cc1nnc2n1-c1sc(CCc3ccc(CC(C)C)cc3)cc1C(c1ccccc1Cl)=NC2c1ccccc1 (stereo not shown) [compound 44]	15.7
Cc1nnc2n1-c1sc(CCc3ccc(CC(C)C)cc3)cc1C(c1ccccc1Cl)=NC2Cc1ccccc1 (stereo not shown) [compound 46]	21.1
CCc1cc2c(s1)-n1c(C)nnc1C(NC(=O)c1cc3ccccc3[nH]1)N=C2c1ccccc1Cl (stereo not shown) [compound 48]	25.7
CCc1cc2c(s1)-n1c(C)nnc1C(NC(=O)c1ccccc1)N=C2c1ccccc1Cl (stereo not shown) [compound 50]	26.4
CCc1cc2c(s1)-n1c(C)nnc1C(NC(=O)Nc1cccc(C)c1)N=C2c1ccccc1Cl (stereo not shown) [compound 51]	26.9
CCCN(CCC)C(=O)C1Cc2sc3c(c2C1)C(c1ccccc1Cl)=NCc1nnc(C)n1-3 (stereo not shown) [compound 53]	73.5
Cc1nnc2n1-c1sc3c(c1C(c1ccccc1Cl)=NC2C)CC(C(=O)N1CCOCC1)C3 (stereo not shown) [compound 54]	31.7
CC(C)Cc1ccc(CCc2cc3c(s2)N(CCN(C)C)C(=O)CN=C3c2ccccc2Cl)cc1 [compound 64]	25.2
CCc1cc2c(s1)-n1c(C)nnc1C(CC(=O)Nc1ccccc1OC)N=C2c1ccc(Cl)cc1 (stereo not shown) [compound 250]	27.3
CCc1cc2c(s1)-n1c(C)nnc1C(NS(=O)(=O)c1ccc(C)cc1)N=C2c1ccc(Cl)cc1 (stereo not shown) [compound 254]	32.5
CCc1cc2c(s1)-n1c(C)nnc1C(NC(=O)Cc1ccccc1)N=C2c1ccccc1Cl (stereo not shown) [compound 255]	54.3
CCCCCCCCCCCc1nnc2n1-c1sc(CC)cc1C(c1ccc(O)cc1)OC2 (stereo not shown) [compound 302]	22.4
CCCCCCCCCCCc1nnc2n1-c1sc(CC)cc1C(c1ccccc1)OC2 (stereo not shown) [compound 304]	28.6
CCCCCCCCCCCc1nnc2n1-c1sc3c(c1C(c1ccccc1Cl)OC2)CCCC3 (stereo not shown) [compound 307]	42.4
Cc1nnc2n1-c1sc(CCc3ccc(CC(C)C)cc3)cc1C(c1ccccc1Cl)OC2 (stereo not shown) [compound 324]	33.1
CCc1cc2c(s1)-n1c(CCCc3ccc(CC(C)C)cc3)nnc1COC2c1ccc(Cl)cc1 (stereo not shown) [compound 330]	35.6
CCCCCCCc1nnc2n1-c1sc(CC)cc1C(c1ccc(OC)cc1)OC2 (stereo not shown) [compound 348]	30.3
CCCCCCCCCCCc1nnc2n1-c1sc(CC)cc1C(c1ccc(OCCN(C)C)cc1)OC2 (stereo not shown) [compound 354]	23.2
CCCCCCCCCCCc1nnc2n1-c1sc(CC)cc1C(c1ccc(C)cc1)OC2 (stereo not shown) [compound 357]	24.7

Same assay, conditions: Table 20, read-out: IC50 (figures in parentheses), bone resorption-inhibitory action

SMILES	IC50 [µM]
CCc1cc2c(s1)-n1c(C)nnc1C(NC(=O)Nc1ccccc1OC)N=C2c1ccc(Cl)cc1 (stereo not shown) [compound 90]	0.25

Same assay, conditions: read-out: IC50 (figures in parentheses), bone resorption-inhibitory action

SMILES	IC50 [µM]
Cc1nnc2n1-c1sc(CCc3ccc(CC(C)C)cc3)cc1C(c1ccccc1Cl)=NC2C (stereo not shown) [compound 9]	7.5

Same assay, conditions: read-out: bone resorption-inhibitory action, % against control

SMILES	inhibition at 20 µM [%]
Cc1nnc2n1-c1sc(CCc3ccc(CC(C)C)cc3)cc1C(c1ccccc1)=NC2 [compound 1]	30.7
Cc1nnc2n1-c1sc(CCc3ccc(CC(C)C)cc3)cc1C(c1cccc(Cl)c1)=NC2 [compound 5]	26.7
CC(C)Cc1ccc(CCc2cc3c(s2)-n2cnnc2CN=C3c2ccccc2Cl)cc1 [compound 6]	30.2
Cc1nnc2n1-c1sc(CCc3ccc(CC(C)C)cc3)cc1C(c1ccccc1Cl)=NC2C (stereo not shown) [compound 9]	23.7
Cc1nnc2n1-c1sc(CCC(=O)N3CCOCC3)cc1C(c1ccccc1Cl)=NC2 [compound 19]	61.7
CCCCCCc1cc2c(s1)-n1c(C)nnc1CN=C2c1ccccc1C [compound 22]	23.4
CCCCCCCCCCc1cc2c(s1)-n1c(C)nnc1CN=C2c1ccccc1OC [compound 25]	17.5
CCCCCCCCCCCCc1cc2c(s1)-n1c(C)nnc1CN=C2c1ccccc1Cl [compound 27]	17
Cc1nnc2n1-c1sc(Cc3ccc(CC(C)C)cc3)cc1C(c1ccccc1Cl)=NC2 [compound 28]	16.5
Cc1nnc2n1-c1sc(CCc3ccc(CC(C)C)cc3)cc1C(c1ccccc1F)=NC2 [compound 30]	20.6
Cc1nnc2n1-c1sc(CCc3ccc(CC(C)C)cc3)cc1C(c1ccc(O)cc1)=NC2 [compound 31]	26.4
CCCc1nnc2n1-c1sc(CCc3ccc(CC(C)C)cc3)cc1C(c1ccccc1Cl)=NC2 [compound 35]	20
Cc1nnc2n1-c1sc(CCC(=O)N3CCOCC3)cc1C(c1ccccc1Cl)=NC2C (stereo not shown) [compound 38]	46
Cc1nnc2n1-c1sc(CCCN3CCOCC3)cc1C(c1ccccc1Cl)=NC2C (stereo not shown) [compound 40]	32.8
Cc1nnc2n1-c1sc3c(c1C(c1ccccc1Cl)=N[C@H]2C)CCN(C(=O)C1CC1)C3 [compound 52]	29.9
CCCCCCc1cc2c(s1)NC(=O)CN=C2c1ccccc1Cl [compound 60]	58.6
CCCCCCCCc1cc2c(s1)N(CCN(C)C)C(=O)CN=C2c1ccccc1Cl [compound 62]	27.4
CCc1cc2c(s1)-n1c(noc1=O)CN=C2c1ccccc1Cl [compound 66]	56.3
CCc1cc2c(s1)-n1ccnc1CN=C2c1ccccc1Cl [compound 67]	55.3
Cc1nnc2n1-c1ccc(Cl)cc1C(c1ccccc1Cl)=NC2 [compound 68]	57.5
Cc1nnc2n1-c1ccc(Cl)cc1C(c1ccccc1)=NC2 [compound 69]	21.9
Clc1ccc2c(c1)C(c1ccccc1Cl)=NCc1nccn1-2 [compound 70]	50.3
CCc1cc2c(s1)-n1c(C)nnc1C(OC(=O)Nc1cccc(C)c1)N=C2c1ccc(OC)cc1 (stereo not shown) [compound 257]	27.1
CCOC(=O)C1(NC(=O)Nc2cccc(C)c2)N=C(c2ccc(Cl)cc2)c2ccccc2-n2c(C)nnc21 (stereo not shown) [compound 501]	29.5
COc1ccccc1NC(=O)NC1N=C(c2ccc(Cl)cc2)c2ccccc2-n2c(C)nnc21 (stereo not shown) [compound 502]	31.8
Cc1cccc(NC(=O)NC2N=C(c3ccc(Cl)cc3)c3ccccc3-n3c(C)nnc32)c1 (stereo not shown) [compound 503]	30.4
Cc1nnc2n1-c1ccccc1C(c1ccc(Cl)cc1)=NC2NC(=O)OCc1ccccc1 (stereo not shown) [compound 504]	24.6
COc1ccccc1NC(=O)NCC1N=C(c2ccc(Cl)cc2)c2ccccc2-n2c(C)nnc21 (stereo not shown) [compound 505]	53.5
Cc1cccc(NC(=O)NCC2N=C(c3ccc(Cl)cc3)c3ccccc3-n3c(C)nnc32)c1 (stereo not shown) [compound 506]	32.5
Cc1nnc2n1-c1ccccc1C(c1ccc(Cl)cc1)=NC2NS(=O)(=O)Cc1ccccc1 (stereo not shown) [compound 507]	35.6
